Experimental data taken from US20260078120A1, “SUBSTITUTED PYRIDOPYRIMIDINONES” (MIRATI THERAPEUTICS, INC., priority 2022, published 2026).

Columns and labels:
Assay type in all cases: cell-based
[1] = test system: T47D (PI3Kα H1047R mutant) cells; assay: Inhibition of pAKT formation, alphaLISA SureFire Ultra AKT 1/2/3 (pS473), T47D cells; details: Homo sapiens, T47D, T47D (PI3Kα H1047R mutant) cells; inhibition of pAKT (pS473) formation; approximately one hour or 24 hours treatment; read-out: T47D pAKT (H1047R mutant) IC50
In short: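 AKT Ser473 phosphorylation was quantified by alphaLISA SureFire Ultra after roughly 1 h or 24 h compound exposure at 37 °C. Cells were T47D (12,000/well in HBSS), treated with a 10-point 1:4 series starting at 10.4 μM. Percent of control used alpelisib background and DMSO reference, and IC50 came from four-parameter logistic fitting.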

[2] = test system: MKN1 (PI3Kα E545K mutant) cells; assay: CellTiter-Glo 2.0 luminescent cell viability assay, 72 hours, MKN1 cells; details: Homo sapiens, MKN-1; MKN1 (PI3Kα E545K mutant) cells, CellTiter-Glo, approximately 72 hours; read-out: MKN1 (E545K) Viability IC50
Experimental: This Example illustrates that exemplary compounds of the present invention decrease the viability of cells.
The ability of a compound of Formula (I) to decrease the viability of cells was measured using CellTiter-Glo 2.0 (CTG) Luminescent Cell Viability Assay (#G9241) obtained from Promega (Madison, WI).
To prepare assay plates for viability assays, cells were trypsinized, resuspended in fresh media, and viable cells were counted utilizing trypan blue exclusion. T47D, SKBR3, or MKN1 cells were seeded at 1000 cells in 30 μl per well in a solid white flat bottom 384 cell culture plate (Perkin Elmer #6007680) and incubated at 37° C. overnight.
Assay day 1, cells were dosed using an Echo Liquid Handler (Beckman Coulter) with compounds at a 10 um starting concentration and serially diluted (1:4) for a total of 10 concentrations. Cells were incubated for approximately 72 hours with the compounds (solubilized in DMSO) at 37° C. After 72 hours of treatment, cell plates were equilibrated to room temperature before adding 15 μl of CTG to each well, plates were then covered in aluminum foil to protect from light, incubated at room temperature for 30 minutes on a microtiter plate shaker, and luminescence readings were collected using a CLARIOstar microplate reader (BMG Labtech, Germany). Percent of vehicle control values were plotted as log (inhibitor) vs. response-Variable slope (four parameters) for curve fitting and IC50 values were determined using XLfit.

[3] = test system: SKBR3 (PI3Kα wild type) cells; assay: Inhibition of pAKT formation, alphaLISA SureFire Ultra AKT 1/2/3 (pS473), SKBR3 cells; details: Homo sapiens, SK-BR-3; Inhibition of pAKT in SKBR3 (PI3Kα wild type) cells; read-out: SKBR3 (WT) pAKT IC50 (nM) (H1047R mutant) IC50
In short: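 Cells seeded in HBSS (SKBR3 12,000/well, MKN1 24,000/well) and dosed immediately, 10-point 1:4 series from […], for about 1 h or 24 h at 37 °C. pAKT S473 by alphaLISA after lysis; signal normalised to alpelisib and DMSO controls, IC50 by four-parameter fit.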

[4] = test system: MKN1 (PI3Kα E545K mutant) cells; assay: Inhibition of pAKT formation, alphaLISA SureFire Ultra AKT 1/2/3 (pS473), MKN1 cells; details: Homo sapiens, MKN-1; MKN1 (PI3Kα E545K mutant) cells; inhibition of pAKT (pS473) formation; approximately one hour or 24 hours treatment; read-out: MKN1 (E545K) pAKT IC50
Experimental: The ability of a compound of Formula (I) to inhibit the formation of pAKT was measured using alphaLISA Surefire Ultra AKT 1/2/3 (pS473) Assay Kit (#ALSU-PAKT-B50K) was obtained from Perkin Elmer (Waltham, MA).
To prepare assay plates for pAKT alphaLISA assays, cells were trypsinized, resuspended in fresh media, and viable cells were counted utilizing trypan blue exclusion. Prior to seeding, cells were washed with PBS and resuspended in HBSS (Gibco, #14025092). T47D (12,000/w), SKBR3(12,000/w), or MKN1(24,000/w) cells were seeded at 12 μl per well in a solid white flat bottom 384 cell culture plate (Perkin Elmer #6007680).
Immediately after seeding, cells were dosed using an Echo Liquid Handler (Beckman Coulter) with compounds at a […] starting concentration and serially diluted (1:4) for a total of 10 concentrations. […] Cells were incubated with the compounds (solubilized in DMSO) for approximately one hour or 24 hours at 37° C. After one hour (or 24 hours) of treatment, cells were lysed with 3 μl of the 5× lysis buffer (provided and incubated at room temperature for 15 min on a microtiter plate shaker). Once cells were sufficiently lysed, 7.5 μl of the acceptor bead mix (made using the manufacturers recommended dilutions) was added to each well and left on the microtiter plate shaker for 1 min prior to incubating plates at room temperature for one hour, in the absence of light. After one hour of incubation with the acceptor bead mix, 7.5 μl of the donor bead mix (made using the manufacturers recommended dilutions) was added to each well and left on the microtiter plate shaker for 1 min prior to incubating plates at room temperature overnight in the absence of light. Plates were then imaged the following day using a CLARIOstar microplate reader (BMG Labtech, Germany).
Percent of control values were calculated by subtracting the average signal from the positive control (alpelisib) treated wells from all treated wells (including DMSO control wells) and then divided by the average signal from the vehicle DMSO treated control wells. Percent of vehicle control values were plotted as log (inhibitor) vs. response-Variable slope (four parameters) for curve fitting and IC50 values were determined using XLfit.
Key: N.D. =not determined

[5] = test system: T47D (PI3Kα H1047R mutant) cells; assay: CellTiter-Glo 2.0 luminescent cell viability assay, 72 hours, T47D cells; details: Homo sapiens, T47D, 72 h, T47D (PI3Kα H1047R mutant) cells, CellTiter-Glo, approximately 72 hours; read-out: T47D (H1047R mutant) Viability IC50
In short: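 Viability was measured by CellTiter-Glo 2.0 luminescence after approximately 72 h of compound exposure at 37° C. Plating was 1000 cells per well the day before dosing, with ten 1:4 dilutions from a 10 µM top concentration. Values as percent of vehicle were fitted by variable-slope log(inhibitor) regression to give IC50.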

[6] = test system: SKBR3 (PI3Kα wild type) cells; assay: CellTiter-Glo 2.0 luminescent cell viability assay, 72 hours, SKBR3 cells; details: Homo sapiens, SK-BR-3, 72 h, SKBR3 (PI3Kα wild type) cells, CellTiter-Glo, approximately 72 hours; read-out: SKBR3 (WT) Viability IC50
In short: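 Viability measured via CTG luminescence following roughly 72 hours of compound exposure at 37° C. Dosing used a 10 um starting concentration diluted 1:4 over 10 points; percent-of-vehicle data fitted with a variable-slope four-parameter model for IC50.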

| Structure (SMILES) | IC50 [1] [µM] | IC50 [2] [µM] | IC50 [3] [nM] | IC50 [4] [µM] | IC50 [5] [µM] | IC50 [6] [µM] |
| --- | --- | --- | --- | --- | --- | --- |
| CNC(=O)c1ccccc1NC(C)c1cc(C)cn2c(=O)cc(N3CCCCC3)nc12 (stereo not drawn) [Example 3-14, N-methyl-2-((1-(7-methyl-4-oxo-2-(piperidin-1-yl)-4H-pyrido[1,2-a]pyrimidin-9-yl)ethyl)amino)benzamide] | 4.54 | > 10 | > 10000 | 2.91 | 1.36 | > 10 |
| Cc1cc(C(C)Nc2ccccc2C(N)=O)c2nc(N3CCCCC3)cc(=O)n2c1 (stereo not drawn) [Example 3-13, 2-((1-(7-methyl-4-oxo-2-(piperidin-1-yl)-4H-pyrido[1,2-a]pyrimidin-9-yl)ethyl)amino)benzamide] | 1.06 | > 10 | > 10000 | 3.99 | > 10 | > 10 |
| Cc1cc(C(C)Nc2ccc(O)cc2C(=O)O)c2nc(N3CCCCC3)cc(=O)n2c1 (stereo not drawn) [Example 3-6, 5-hydroxy-2-((1-(7-methyl-4-oxo-2-(piperidin-1-yl)-4H-pyrido[1,2-a]pyrimidin-9-yl)ethyl)amino)benzoic acid] | > 10 | > 10 | 2670 | > 10 | > 10 | > 10 |
| COc1ccc(C(=O)O)c(NC(C)c2cc(C)cn3c(=O)cc(N4CCCCC4)nc23)c1 (stereo not drawn) [Example 3-7, 4-methoxy-2-((1-(7-methyl-4-oxo-2-(piperidin-1-yl)-4H-pyrido[1,2-a]pyrimidin-9-yl)ethyl)amino)benzoic acid] | > 10 | > 10 | 8030 | > 10 | > 10 | > 10 |
| COc1ccc(NC(C)c2cc(C)cn3c(=O)cc(N4CCCCC4)nc23)c(C(=O)O)c1 (stereo not drawn) [Example 3-5, 5-methoxy-2-((1-(7-methyl-4-oxo-2-(piperidin-1-yl)-4H-pyrido[1,2-a]pyrimidin-9-yl)ethyl)amino)benzoic acid] | 1.8 | > 10 | > 10000 | > 10 | > 10 | > 10 |
| Cc1cc(C(C)N(C)C(=O)CCl)c2nc(N3CCCCC3)cc(=O)n2c1 (stereo not drawn) [Example 4-4, 2-chloro-N-methyl-N-(1-(7-methyl-4-oxo-2-(piperidin-1-yl)-4H-pyrido[1,2-a]pyrimidin-9-yl)ethyl)acetamide] | > 10 | 4.29 | > 10000 | > 10 | > 10 | 3.86 |
| C=CC(=O)NC(C)c1cc(C)cn2c(=O)cc(N3CCCCC3)nc12 (stereo not drawn) [Example 4-1, N-(1-(7-methyl-4-oxo-2-(piperidin-1-yl)-4H-pyrido[1,2-a]pyrimidin-9-yl)ethyl)acrylamide] | > 10 | > 10 | > 10000 | > 10 | > 10 | > 10 |
| Cc1cc(C(C)Nc2cc(O)ccc2C(=O)O)c2nc(N3CCCCC3)cc(=O)n2c1 (stereo not drawn) [Example 3-8, 4-hydroxy-2-((1-(7-methyl-4-oxo-2-(piperidin-1-yl)-4H-pyrido[1,2-a]pyrimidin-9-yl)ethyl)amino)benzoic acid] | 3 | > 10 | > 10000 | > 10 | > 10 | > 10 |
| Cc1cc(C(C)Nc2ccccc2)c2nc(N3CCCCC3)cc(=O)n2c1 (stereo not drawn) [Example 1, 7-methyl-9-(1-(phenylamino)ethyl)-2-(piperidin-1-yl)-4H-pyrido[1,2-a]pyrimidin-4-one] | > 10 | > 10 | > 10000 | > 10 | > 10 | > 10 |

Other lines, results leading:

| IC50 [1] [µM] | IC50 [2] [µM] | IC50 [3] [nM] | IC50 [4] [µM] | IC50 [5] [µM] | IC50 [6] [µM] | Structure (SMILES) |
| --- | --- | --- | --- | --- | --- | --- |
| 1.21 | > 10 | > 10000 | > 10 | 8.02 | > 10 | Cc1cc([C@@H](C)Nc2ccccc2C(=O)O)c2nc(N3CCC(C)(C)CC3)cc(=O)n2c1 (single isomer, unassigned) [Example 5-5] |
| 0.0341 | 3.28 | > 10000 | > 10 | 2.63 | 2.95 | CC(Nc1ccccc1C(=O)O)c1cc(C(F)F)cn2c(=O)cc(N3CCCCC3)nc12 (stereo not drawn) [Example 5-7, 2-((1-(7-(difluoromethyl)-4-oxo-2-(piperidin-1-yl)-4H-pyrido[1,2-a]pyrimidin-9-yl)ethyl)amino)benzoic acid] |
| 0.0281 | > 10 | 9050 | 6.52 | 3.8 | > 10 | CCc1c(N2CCCCC2)nc2c(C(C)Nc3ccccc3C(=O)O)cc(C)cn2c1=O (stereo not drawn) [Example 5-6, 2-((1-(3-ethyl-7-methyl-4-oxo-2-(piperidin-1-yl)-4H-pyrido[1,2-a]pyrimidin-9-yl)ethyl)amino)benzoic acid] |
| 0.0404 | > 10 | 6120 | > 10 | 1.8 | > 10 | Cc1c(N2CCC(C)(C)CC2)nc2c(C(C)Nc3ccccc3C(=O)O)cccn2c1=O (stereo not drawn) [Example 5-10, 2-((1-(2-(4,4-dimethylpiperidin-1-yl)-3-methyl-4-oxo-4H-pyrido[1,2-a]pyrimidin-9-yl)ethyl)amino)benzoic acid] |
| 0.0212 | > 10 | > 10000 | > 10 | 2.58 | > 10 | Cc1cc(C(C)Nc2ccccc2C(=O)O)c2nc(C3CCOCC3)cc(=O)n2c1 (stereo not drawn) [Example 9-1, 2-((1-(7-methyl-4-oxo-2-(tetrahydro-2H-pyran-4-yl)-4H-pyrido[1,2-a]pyrimidin-9-yl)ethyl)amino)benzoic acid] |
| 0.03 | > 10 | 1820 | 1.39 | 0.461 | > 10 | Cc1cc([C@@H](C)Nc2ccccc2C(=O)O)c2nc(N3CCC(C)(C)CC3)c(C)c(=O)n2c1 (single isomer, unassigned) [Example 5-1] |
